Assay results reported in PMC11576293, “New series of 4,6-diaryl pyrimidines: facile synthesis and antiproliferative activity as dual EGFR/VEGFR-2 inhibitors” (Frontiers in Chemistry, 2024).

Columns and labels:
Assay in all cases: NCI-60 single-dose screen
Format in all cases: cell-based
786-0 = conditions: Homo sapiens, single dose 10 µM, '-' = no inhibition, read-out: % Growth Inhibition
Outline: (§1)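 The NCI Developmental Therapeutics Program exposed each of 60 cancer cell lines, drawn from leukemia, lung, colon, CNS, melanoma, ovarian, renal, prostate and breast origins, to one concentration of compound (10 μM).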

A498 = conditions: Homo sapiens, single dose 10 µM, '-' = no inhibition, read-out: % Growth Inhibition
Outline: as §1

A549/ATCC = conditions: Homo sapiens, single dose 10 µM, '-' = no inhibition, read-out: % Growth Inhibition
Outline: as §1

ACHN 1 = conditions: Homo sapiens, single dose 10 µM, '-' = no inhibition, read-out: % Growth Inhibition
Outline: as §1

BT-549 = conditions: Homo sapiens, single dose 10 µM, '-' = no inhibition, read-out: % Growth Inhibition
Outline: as §1

CCRF-CEM = conditions: Homo sapiens, single dose 10 µM, '-' = no inhibition, read-out: % Growth Inhibition
Outline: as §1

COLO 205 = conditions: Homo sapiens, single dose 10 µM, '-' = no inhibition, read-out: % Growth Inhibition
Outline: as §1

EKVX = conditions: Homo sapiens, single dose 10 µM, '-' = no inhibition, read-out: % Growth Inhibition
Outline: as §1

HCC-2998 = conditions: Homo sapiens, single dose 10 µM, '-' = no inhibition, read-out: % Growth Inhibition
Outline: as §1

HCT-15 = conditions: Homo sapiens, single dose 10 µM, '-' = no inhibition, read-out: % Growth Inhibition
Outline: as §1

HL-60(TB) = conditions: Homo sapiens, single dose 10 µM, '-' = no inhibition, read-out: % Growth Inhibition
HOP-62 = conditions: Homo sapiens, single dose 10 µM, '-' = no inhibition, read-out: % Growth Inhibition
Outline: as §1

HT29 = conditions: Homo sapiens, HT-29, single dose 10 µM, '-' = no inhibition, read-out: % Growth Inhibition
Outline: as §1

IGROV1 = conditions: Homo sapiens, IGROV-1, single dose 10 µM, '-' = no inhibition, read-out: % Growth Inhibition
Outline: as §1

K-562 = conditions: Homo sapiens, K562, single dose 10 µM, '-' = no inhibition, read-out: % Growth Inhibition
Outline: as §1

LOX IMVI = conditions: Homo sapiens, single dose 10 µM, '-' = no inhibition, read-out: % Growth Inhibition
Outline: as §1

M14 = conditions: Homo sapiens, single dose 10 µM, '-' = no inhibition, read-out: % Growth Inhibition
Outline: as §1

MALME-3M = conditions: Homo sapiens, single dose 10 µM, '-' = no inhibition, read-out: % Growth Inhibition
Outline: as §1

MCF7 = conditions: Homo sapiens, single dose 10 µM, '-' = no inhibition, read-out: % Growth Inhibition
Outline: as §1

MDA-MB-468 = conditions: Homo sapiens, single dose 10 µM, '-' = no inhibition, read-out: % Growth Inhibition
Outline: as §1

MDA-MB231/ATCC = conditions: Homo sapiens, MDA-MB-231, single dose 10 µM, '-' = no inhibition, read-out: % Growth Inhibition
Outline: as §1

NCI-H23 = conditions: Homo sapiens, single dose 10 µM, '-' = no inhibition, read-out: % Growth Inhibition
Outline: as §1

NCI-H322M = conditions: Homo sapiens, single dose 10 µM, '-' = no inhibition, read-out: % Growth Inhibition
Outline: as §1

NCI-H460 = conditions: Homo sapiens, single dose 10 µM, '-' = no inhibition, read-out: % Growth Inhibition
Outline: as §1

NCI-H522 = conditions: Homo sapiens, single dose 10 µM, '-' = no inhibition, read-out: % Growth Inhibition
Outline: as §1

NCI/ADR-RES = conditions: Homo sapiens, single dose 10 µM, '-' = no inhibition, read-out: % Growth Inhibition
Outline: as §1

OVCAR-4 = conditions: Homo sapiens, single dose 10 µM, '-' = no inhibition, read-out: % Growth Inhibition
Outline: as §1

OVCAR-5 = conditions: Homo sapiens, single dose 10 µM, '-' = no inhibition, read-out: % Growth Inhibition
Outline: as §1

OVCAR-8 = conditions: Homo sapiens, single dose 10 µM, '-' = no inhibition, read-out: % Growth Inhibition
Outline: as §1

PC-3 = conditions: Homo sapiens, single dose 10 µM, '-' = no inhibition, read-out: % Growth Inhibition
Outline: as §1

RPMI-8226 = conditions: Homo sapiens, single dose 10 µM, '-' = no inhibition, read-out: % Growth Inhibition
Outline: as §1

RXF 393 = conditions: Homo sapiens, single dose 10 µM, '-' = no inhibition, read-out: % Growth Inhibition
Outline: as §1

SF-539 = conditions: Homo sapiens, single dose 10 µM, '-' = no inhibition, read-out: % Growth Inhibition
Outline: as §1

SK-MEL-28 = conditions: Homo sapiens, single dose 10 µM, '-' = no inhibition, read-out: % Growth Inhibition
Outline: as §1

SK-MEL-2 = conditions: Homo sapiens, single dose 10 µM, '-' = no inhibition, read-out: % Growth Inhibition
Outline: as §1

SK-MEL-5 = conditions: Homo sapiens, single dose 10 µM, '-' = no inhibition, read-out: % Growth Inhibition
Outline: as §1

SK-OV-3 = conditions: Homo sapiens, single dose 10 µM, '-' = no inhibition, read-out: % Growth Inhibition
Outline: as §1

SNB-19 = conditions: Homo sapiens, single dose 10 µM, '-' = no inhibition, read-out: % Growth Inhibition
Outline: as §1

SNB-75 = conditions: Homo sapiens, single dose 10 µM, '-' = no inhibition, read-out: % Growth Inhibition
Outline: as §1

SR = conditions: Homo sapiens, single dose 10 µM, '-' = no inhibition, read-out: % Growth Inhibition
Outline: as §1

T-47D = conditions: Homo sapiens, T47D, single dose 10 µM, '-' = no inhibition, read-out: % Growth Inhibition
Outline: as §1

TK-10 = conditions: Homo sapiens, single dose 10 µM, '-' = no inhibition, read-out: % Growth Inhibition
Outline: as §1

U251 = conditions: Homo sapiens, U-251, single dose 10 µM, '-' = no inhibition, read-out: % Growth Inhibition
Outline: as §1

UACC-257 = conditions: Homo sapiens, single dose 10 µM, '-' = no inhibition, read-out: % Growth Inhibition
Outline: as §1

UACC-62 = conditions: Homo sapiens, single dose 10 µM, '-' = no inhibition, read-out: % Growth Inhibition
Outline: as §1

UO-31 = conditions: Homo sapiens, single dose 10 µM, '-' = no inhibition, read-out: % Growth Inhibition
Outline: as §1

Compound `COc1ccc(-c2cc(-c3ccc(Cl)cc3)nc(SC)n2)cc1` [Compound 9, 4-(4-Chlorophenyl)-6-(4-methoxyphenyl)-2-(methylthio)pyrimidine] has an inhibition at 10 µM (786-0) of 1.88%, an inhibition at 10 µM (A498) of under 0% and an inhibition at 10 µM (A549/ATCC) of 7.56%. For the same compound, the inhibition at 10 µM (ACHN 1) was 4.08%, the inhibition at 10 µM (BT-549) was under 0% and the inhibition at 10 µM (CCRF-CEM) was 0.1%. It also gave an inhibition at 10 µM (COLO 205) of 0.19%, an inhibition at 10 µM (EKVX) of 19.4% and an inhibition at 10 µM (HCC-2998) of under 0%. For the same compound, the inhibition at 10 µM (HCT-15) was 15%, the inhibition at 10 µM (HL-60(TB)) was 7.42% and the inhibition at 10 µM (HOP-62) was 9.16%. For the same compound, the inhibition at 10 µM (HT29) was 15.6%, the inhibition at 10 µM (IGROV1) was 3.15% and the inhibition at 10 µM (K-562) was 18.6%. The inhibition at 10 µM (LOX IMVI) was 12.2%, the inhibition at 10 µM (M14) was 3.51% and the inhibition at 10 µM (MALME-3M) was 11.3%. It also gave an inhibition at 10 µM (MCF7) of 28.7%, an inhibition at 10 µM (MDA-MB-468) of 26.2% and an inhibition at 10 µM (MDA-MB231/ATCC) of 20.4%. For the same compound, the inhibition at 10 µM (NCI-H23) was 9.87%, the inhibition at 10 µM (NCI-H322M) was 14.3% and the inhibition at 10 µM (NCI-H460) was 4.25%. The inhibition at 10 µM (NCI-H522) was 16%, the inhibition at 10 µM (NCI/ADR-RES) was 9.84% and the inhibition at 10 µM (OVCAR-4) was 4.46%. The inhibition at 10 µM (OVCAR-5) was under 0%, the inhibition at 10 µM (OVCAR-8) was 11% and the inhibition at 10 µM (PC-3) was 6.22%. The inhibition at 10 µM (RPMI-8226) was 10.8%, the inhibition at 10 µM (RXF 393) was 7.91% and the inhibition at 10 µM (SF-539) was 6.28%. The inhibition at 10 µM (SK-MEL-28) was under 0%, the inhibition at 10 µM (SK-MEL-2) was under 0% and the inhibition at 10 µM (SK-MEL-5) was 4.98%. The inhibition at 10 µM (SK-OV-3) was under 0%, the inhibition at 10 µM (SNB-19) was 4.85% and the inhibition at 10 µM (SNB-75) was under 0%. For the same compound, the inhibition at 10 µM (SR) was 12.7%, the inhibition at 10 µM (T-47D) was 9.97% and the inhibition at 10 µM (TK-10) was under 0%. It also gave an inhibition at 10 µM (U251) of 3.42%, an inhibition at 10 µM (UACC-257) of 5.09% and an inhibition at 10 µM (UACC-62) of 26%. It also gave an inhibition at 10 µM (UO-31) of 18.1%.
